How the values were obtained:
Settings in all cases: 72 h
[1] = system: BV-173
Method in brief: (§1)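 Fifteen myeloid leukaemia cell lines were seeded in RPMI 1640 at a density titrated to the linear growth range. Each line went into 384-well plates with compounds acoustically pre-printed at five tenfold doses from 1 to 10,000 nM, in duplicate, and was incubated for 72 h at 37 °C with 5% CO2. Luminescent ATP viability was normalised to vehicle and to a positive control at 10 µM. The IC50 came from four-parameter log-logistic dose–response fits.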

[2] = system: KG-1
Method in brief: as §1

[3] = system: HL-60
Method in brief: as §1

[4] = system: KCL-22
Method in brief: as §1

[5] = system: Mono-Mac-6
Method in brief: as §1

[6] = system: LAMA-84
Method in brief: as §1

[7] = system: MOLM-13
Method in brief: as §1

[8] = system: KU-812
Method in brief: as §1

[9] = system: NOMO-1
Method in brief: as §1

[10] = system: K-562
Method in brief: as §1

[11] = system: THP-1
Method in brief: as §1

[12] = system: HEL
Method in brief: as §1

[13] = system: MV4-11
Method in brief: as §1

[14] = system: SHI-1
Method in brief: as §1

[15] = system: ML-2
Method in brief: as §1

[16] = system: BV-173; test: cell viability (% survival relative to DMSO control, bortezomib = 0%); higher = less cytotoxic
Method in brief: (§2)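 Fifteen myeloid leukaemia cell lines (10 AML, 5 CML) were seeded at a density titrated to the linear growth range. They went into 384-well plates with compounds pre-printed at 1, 10, 100, 1000 or 10000 nM in duplicate. After 72 h at 37 °C with 5% CO2, viability was read by CellTiter-Glo luminescence. Values are percent survival, with vehicle set to 100% and a 10 µM positive control to 0%, averaged over the duplicates.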

[17] = system: KG-1; test: as above
Method in brief: as §2

[18] = system: HL-60; test: as above
Method in brief: as §2

[19] = system: KCL-22; test: as above
Method in brief: as §2

[20] = system: Mono-Mac-6; test: as above
Method in brief: as §2

[21] = system: LAMA-84; test: as above
Method in brief: as §2

[22] = system: MOLM-13; test: as above
Method in brief: as §2

[23] = system: KU-812; test: as above
Method in brief: as §2

[24] = system: NOMO-1; test: as above
Method in brief: as §2

[25] = system: K-562; test: as above
Method in brief: as §2

[26] = system: THP-1; test: as above
Method in brief: as §2

[27] = system: HEL; test: as above
Method in brief: as §2

[28] = system: MV4-11; test: as above
Method in brief: as §2

[29] = system: SHI-1; test: as above
Method in brief: as §2

[30] = system: ML-2; test: as above
Method in brief: as §2

C=CCN(C)CCCCCCOc1ccc(C(=O)c2ccc(Br)cc2)c(F)c1.O=C(O)/C=C/C(=O)O [Ro 48-8071 fumarate]
Settings	IC50 (cell viability) [µM]
[1]	1.79
[2]	6.11
[3]	5.92
[4]	> 10
[5]	> 10
[6]	8.49
[7]	> 10
[8]	9.97
[9]	> 10
[10]	2.06
[11]	> 10
[12]	> 10
[13]	5.95
[14]	> 10
[15]	> 10

cell viability [%]
Settings	1 nM	10 nM	100 nM	1000 nM	10000 nM
[16]	90.3	86.2	66.2	63.3	29.5
[17]	110	101	78.5	80.7	52.3
[18]	115	88.4	84.3	98.8	24.7
[19]	99.6	98.6	96.3	87.4	77.5
[20]	92.2	87.6	92.4	96	63.8
[21]	90.6	100	81.1	83.8	47
[22]	132	113	88.9	89.1	62.2
[23]	90.2	92.4	76.2	80.7	43.3
[24]	104	97	98.1	105	92.7
[25]	87	104	102	82.2	19.6
[26]	102	91.7	105	101	80.3
[27]	112	102	102	109	86.7
[28]	91.5	114	84.4	83.4	50.6
[29]	103	100	101	105	58.5
[30]	106	98.5	106	96.4	68.9

O=c1cc(N2CCOCC2)oc2c(-c3ccccc3)cccc12
Settings	IC50 (cell viability) [µM]
[1]	0.0237
[2]	4.97
[3]	0.334
[4]	9.05
[5]	3.75
[6]	> 10
[7]	0.185
[8]	> 10
[9]	0.0252
[10]	0.291
[11]	> 10
[12]	0.0487
[13]	0.0392
[14]	3.6
[15]	0.0328

cell viability [%]
Settings	1 nM	10 nM	100 nM	1000 nM	10000 nM
[16]	176	95.7	1.14	95.6	48
[17]	114	106	82.8	90.8	28.4
[18]	130	118	103	0.801	0.404
[19]	123	104	90.5	98.9	45.1
[20]	116	103	95.3	83.2	40.7
[21]	127	108	46.1	84.2	65.3
[22]	125	119	77.5	1.16	0.26
[23]	115	100	56.3	95.1	54.8
[24]	122	96	9.05	90.4	57.1
[25]	135	104	90.3	6.74	0.516
[26]	116	94.1	99.8	95.8	59.3
[27]	133	92.1	23.1	98.9	78.1
[28]	131	120	0.364	-0.297	-0.0959
[29]	123	102	106	92.8	30.7
[30]	143	103	17.6	89.4	54.9

CCCCCOC(=O)Nc1nc(=O)n([C@@H]2O[C@H](C)[C@@H](O)[C@H]2O)cc1F [Capecitabine]
Settings	IC50 (cell viability) [µM]
[1]	> 10
[2]	> 10
[3]	> 10
[4]	> 10
[5]	> 10
[6]	> 10
[7]	> 10
[8]	> 10
[9]	> 10
[10]	> 10
[11]	> 10
[12]	> 10
[13]	> 10
[14]	> 10
[15]	> 10

cell viability [%]
Settings	1 nM	10 nM	100 nM	1000 nM	10000 nM
[16]	100	93.8	102	97.5	88.3
[17]	98.1	91.1	103	97.5	86.8
[18]	104	85.2	109	101	72
[19]	118	85.4	66.3	109	85.2
[20]	100	90.2	113	95.6	93.1
[21]	91.9	94.5	87.6	99	99.9
[22]	87.7	104	121	113	70.8
[23]	90.7	93.3	104	102	89.9
[24]	99.5	100	94.9	93	99.9
[25]	97.4	92.5	82.9	99.9	93.3
[26]	102	100	94.1	105	94.6
[27]	86.1	87	106	106	87.6
[28]	98.2	90.8	110	103	89.7
[29]	102	99.1	97.1	107	96.7
[30]	107	95.5	86.1	94.1	98.3
